Measurements published in patent US20140024663A1, “ATB(0,+) AMINO ACID TRANSPORTER AS A DRUG TARGET FOR TREATMENT OF ESTROGEN RECEPTOR-POSITIVE BREAST CANCER” (GEORGIA HEALTH SCIENCES UNIVERSITY RESEARCH INSTITUTE, INC., priority 2012, published 2014).

Experiments:
[1] = test system: MB231 cells; experiment: Cell death by propidium iodide staining and FACS cell cycle analysis; format: cell-based, human; settings: MB231, α-MT 2.5 mM and 3-MA 10 mM, either alone or together, 48 h
Experimental: (§1) FIGS. 9A to 9D. Influence of α-MT on mTOR activity In FIG. 9A, MCF7 and MB231 cells were treated without or with α-MT (2.5 mM) for 24 h, 48 h, or 72 h, and then the cell lysates were used for western blot. Influence of α-MT with or without 3-MA on cell death. In FIG. 9B, MCF7, MB231, and MCF10A cells were treated for 48 h without or with α-MT (2.5 mM), 3-MA (10 mM), or α-MT (2.5 mM) plus 3-MA (10 mM), and then analyzed for cell death by propidium iodide (PI) staining and FACS-based cell cycle analysis. In FIG. 9C, MCF7 cells were treated for 48 h without or with α-MT (2.5 mM), 3-MA (10 mM), or α-MT (2.5 mM) plus 3-MA (10 mM), and then analyzed for apoptotic cell death by annexin V labeling. In FIG. 9D, MCF7 and MB231 cells were treated without or with 2.5 mM α-MT for 24 h, 48 h, or 72 h. Cell lysates were then used for western blot analysis of lamin A degradation product using an antibody that recognizes specifically the proteolytic cleavage product. β-Actin was used as an internal control.
(§2) Apoptosis assay. Fluorescence-activated cell sorting (FACS) was used to monitor cell death. MCF7 cells were treated with or without α-MT, 3-MA, or α-MT plus 3-MA. Control and treated cells were then fixed in 50% ethanol, treated with 0.1% sodium citrate, 1 mg/ml RNase A, and 50 μg/ml propidium iodide, and then subjected to FACS analysis (FACS Caliber, Becton Dickinson). FITC-labeled annexin V was used to differentiate apoptotic cell death from necrotic cell death.

[2] = test system: MCF10A cells; experiment: as above; format: cell-based, human; settings: α-MT 2.5 mM and 3-MA 10 mM, either alone or together, 48 h
Experimental: as §1, §2

Structure (SMILES): CC(N)(Cc1c[nH]c2ccccc12)C(=O)O (racemic) [α-MT, α-methyl-DL-tryptophan]
- effect on cell death [1]: very little, if any, effect
- effect on cell death [2]: very little, if any, effect
